Measured values as given in PubChem BioAssay AID1743 (Vanderbilt High Throughput Screening Facility, 2009).

Biological target: Muscarinic acetylcholine receptor M1 (Rattus norvegicus) (UniProt P08482)
Test: activation of mutant rat M1 receptor calcium signal, mechanism study for M1 allosteric modulator project, cell-based, Y381A mutant, CHO-K1 (AID 1743)
Details: Fluo-4 calcium flux; call rule not given here

Sequence of Muscarinic acetylcholine receptor M1 (Rattus norvegicus) (P08482 whole entry Y381A, looked up): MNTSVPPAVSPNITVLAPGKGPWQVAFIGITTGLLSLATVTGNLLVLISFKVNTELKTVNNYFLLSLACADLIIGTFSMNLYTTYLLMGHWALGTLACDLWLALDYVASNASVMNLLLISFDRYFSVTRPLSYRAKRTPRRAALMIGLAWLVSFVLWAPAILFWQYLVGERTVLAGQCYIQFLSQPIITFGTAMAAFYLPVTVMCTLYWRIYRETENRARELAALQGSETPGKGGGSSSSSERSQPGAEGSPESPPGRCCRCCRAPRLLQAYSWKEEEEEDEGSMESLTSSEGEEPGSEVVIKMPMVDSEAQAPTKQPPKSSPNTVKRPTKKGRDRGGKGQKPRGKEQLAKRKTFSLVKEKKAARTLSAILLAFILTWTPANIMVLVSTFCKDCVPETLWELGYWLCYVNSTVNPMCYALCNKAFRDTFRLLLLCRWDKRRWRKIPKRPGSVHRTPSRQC

EC50, active:
CCOC(=O)N1CCC(NCCNC(=O)c2cccs2)CC1 1230 nM, CCOC(=O)N1CCC(NCCNC(=O)c2ccccc2C)CC1 379 nM, CCOC(=O)N1CCC(NCCNC(=O)c2ccccc2)CC1 304 nM
